Test results as given in ChEMBL document CHEMBL1151299, “Flavonoids with anti-cataract activity from Brickellia arguta” (J Nat Prod, 1984).

Key:
[1] = target: Aldo-keto reductase family 1 member B1 (Rattus norvegicus) (UniProt P07943); test: Inhibition of rat lens aldose reductase at 0.1 uM
[2] = target: Aldo-keto reductase family 1 member B1 (Rattus norvegicus) (UniProt P07943); test: Inhibition of rat lens aldose reductase at 1 uM
[3] = target: Aldo-keto reductase family 1 member B1 (Rattus norvegicus) (UniProt P07943); test: Inhibition of rat lens aldose reductase at 10 uM

| inhibition [1] | inhibition [2] | inhibition [3] | Structure (SMILES) |
| --- | --- | --- | --- |
| 63% | 32% | 9% | COc1c(O)cc2oc(-c3ccc(O)cc3)c(O[C@@H]3O[C@H](CO[C@@H]4O[C@@H](C)[C@H](O)[C@@H](O)[C@H]4O)[C@H](O)[C@H](O)[C@H]3O)c(=O)c2c1O |
| – | 40% | 0% | O=C(O)CN1C(=O)c2cccc3cccc(c23)C1=O |
| 84% | 38% | 7% | COc1c(O)cc2oc(-c3ccc(O)c(O)c3)c(O[C@@H]3O[C@H](CO)[C@H](O)[C@H](O)[C@H]3O)c(=O)c2c1O |
| 86% | 33% | 11% | COc1c(O)cc2oc(-c3ccc(O)c(O)c3)c(O[C@@H]3O[C@H](CO[C@@H]4O[C@@H](C)[C@H](O)[C@@H](O)[C@H]4O)[C@H](O)[C@H](O)[C@H]3O)c(=O)c2c1O |
